{
  "source": "patent US8173376B2",
  "about": "“Method for identifying compounds for treatment of pain” (Universite Laval, priority 2003, dated 2012)",
  "molecules": {"B1": {"name": "BDNF: brain-derived neurotrophic factor, activator of TrkB, bath applied (protein, UniProt P23560 19-247, looked up)", "Neurotrophic factor BDNF …": "APMKEANIRGQGGLAYPGVRTHGTLESVNGPKAGSRGLTSLADTFEHVIEELLDEDQKVRPNEENNKDADLYTSRVMLSSQVPLEPPLLFLLEEYKNYLDAANMSMRVRRHSDPARRGELSVCDSISEWVTAADKKTAVDMSGGTVTVLEKVPVSKGQLKQYFYETKCNPMGYTKEGCRGIDKRHWNSQCRTTQSYVRALTMDSKKRIGWRFIRIDTSCVCTLTIKRGR"}, "B2": {"name": "human recombinant BDNF: human recombinant BDNF for local spinal delivery (protein, UniProt P23560 19-247, looked up)", "Neurotrophic factor BDNF …": "B1 Neurotrophic factor BDNF …"}},
  "key": {"[1]": {"test_system": "voltage sensitive Ca2+ channels (VSCCs) and NMDA receptor/channels", "conditions": "cited from earlier work; for Efficacy in the treatment of neuropathic pain: humans"}, "lamina I neurons": {"test_system": "lamina I neurons", "assay": "Anion reversal potential (Eanion) by gramicidin-D perforated-patch voltage-clamp recording in dorsal horn slices", "type": "cell-based, rat"}, "lamina I (LI) neurons": {"test_system": "lamina I (LI) neurons", "assay": "Calcium imaging (fura-2-AM) of GABA-evoked [Ca2+]i rise in lamina I neurons in spinal cord slices", "type": "cell-based, rat"}, "Sprague-Dawley rats [2]": {"test_system": "Sprague-Dawley rats", "assay": "Tactile/mechanical nociceptive withdrawal threshold (von Frey) after intrathecal delivery", "type": "in vivo, rat", "conditions": "for Nociceptive threshold for mechanical stimulation: intrathecal, 10 μg/day x 6 days"}, "Sprague-Dawley rats [3]": {"test_system": "Sprague-Dawley rats", "assay": "Thermal nociceptive withdrawal latency after intrathecal injection", "type": "in vivo, rat", "conditions": "intact naïve rats, DIOA 15-30 μg intrathecal"}, "GlyRs and GABAARs": {"test_system": "GlyRs and GABAARs", "assay": "Whole-cell recording of miniature postsynaptic currents (mPSCs) and GABA-evoked responses in LI neurons", "type": "cell-based, rat", "conditions": "LI neuron, p>0.5"}, "Sprague-Dawley rats [4]": {"test_system": "Sprague-Dawley rats", "conditions": "intrathecal, at the doses used"}, "KCC2": {"test_system": "KCC2", "assay": "Immunoblot of spinal KCC2 protein after intrathecal oligodeoxynucleotide treatment", "type": "in vivo, rat", "conditions": "naïve rats, antisense 12 h or 36 h"}, "[5]": {"conditions": "lamina I neurons from naïve rats, 50 ng/ml in bath"}},
  "note": "Entries after “also recorded” stand apart in the source; their conditions may differ.",
  "data": [
    {"molecule": "CNC1(c2ccccc2Cl)CCCCC1=O", "note": "(stereo not shown) [ketamine]", "values": [
      {"measurement": "Efficacy in the treatment of neuropathic pain", "setting": "[1]", "value": "highly efficacious"},
      {"measurement": "Side effects", "setting": "[1]; use of Ca2+ channel blockers / NMDA antagonists", "value": "many undesirable side effects"}
    ]},
    {"molecule": "NCC1(CC(=O)O)CCCCC1", "note": "[gabapentin]", "values": [
      {"measurement": "Efficacy in the treatment of neuropathic pain", "setting": "[1]", "value": "highly efficacious"}
    ]},
    {"molecule": "KN-93", "values": [
      {"measurement": "Change of Eanion", "setting": "lamina I neurons; lamina I neurons from PNI rats, KN-93 5 μM in bath", "value": "significant hyperpolarization"}
    ]},
    {"molecule": "NC1=N[C@H](O)[C@H]2[C@H]3O[C@]4(O)O[C@@H]([C@@H](O)[C@@]2(N1)[C@@H]4O)[C@]3(O)CO", "note": "[tetrodotoxin]", "values": [
      {"measurement": "Block of GABA-evoked [Ca2+]i responses", "setting": "lamina I (LI) neurons", "value": "blocked"}
    ]},
    {"molecule": "human recombinant NGF: human recombinant NGF for intrathecal delivery", "values": [
      {"measurement": "Nociceptive threshold for mechanical stimulation", "setting": "Sprague-Dawley rats [2]; naïve rats", "value": "very similar decrease"}
    ]},
    {"molecule": "CCCCC1(C2CCCC2)Cc2cc(OCC(=O)O)c(Cl)c(Cl)c2C1=O", "note": "(stereo not shown) [DIOA]", "values": [
      {"measurement": "LI neurons showing an increase in [Ca2+]i on GABA application", "setting": "lamina I (LI) neurons; naïve rat spinal slices, bath applied DIOA 30 μM", "value": 30, "unit": "%"},
      {"measurement": "Proportion of LI neurons displaying a GABA-evoked increase in [Ca2+]i (in words)", "setting": "lamina I (LI) neurons; naïve rats, in the presence of DIOA, χ2 corrected=4.43", "value": "significantly higher"},
      {"measurement": "Nociceptive threshold to thermal stimuli (withdrawal latency)", "setting": "Sprague-Dawley rats [3]", "value": "rapid and reversible decrease"},
      {"measurement": "Effect on peak conductance of synaptic events (mPSCs)", "setting": "GlyRs and GABAARs; CsCl pipette, Eanion clamped at 0 mV, n=4 neurons x 50 mPSCs", "value": "neither affected"},
      {"measurement": "Effect on GABA-evoked responses", "setting": "GlyRs and GABAARs; n=5", "value": "neither affected"},
      {"measurement": "Nociceptive threshold to mechanical stimuli", "setting": "Sprague-Dawley rats [2]; intact naïve rats, DIOA 15-30 μg intrathecal", "value": "rapid and reversible decrease"}
    ]},
    {"molecule": "COC(=O)[C@@]1(O)C[C@H]2O[C@]1(C)n1c3ccccc3c3c4c(c5c6ccccc6n2c5c31)C(=O)NC4", "note": "[K-252a]", "values": [
      {"measurement": "Threshold for tactile nociceptive withdrawal", "setting": "Sprague-Dawley rats [2]; PNI rats, K-252a 6 nM intrathecal, vs vehicle", "value": "increase"},
      {"measurement": "Motor disturbances or sedation", "setting": "Sprague-Dawley rats [4]", "value": "did not produce any motor disturbances or sedation"},
      {"measurement": "Change of Eanion", "setting": "lamina I neurons; lamina I neurons from PNI rats, K-252a 200 nM in bath", "value": "hyperpolarization of the Eanion to a level similar to that observed in lamina I neurons taken from naïve rats; also recorded: significant hyperpolarization"}
    ]},
    {"molecule": "5′-TCTCCTTGGGATTGCCGTCA-3′ (DNA, all phosphorothioate, methylation of C not given here) [KCC2 antisense oligodeoxynucleotide]", "values": [
      {"measurement": "Spinal KCC2 protein levels (immunoblots)", "setting": "KCC2", "value": "Decrease"},
      {"measurement": "Tactile nociceptive withdrawal threshold", "setting": "Sprague-Dawley rats [2]; naïve rats, intrathecal antisense each 12 h (0 h, 12 h, 24 h), vs scrambled oligodeoxynucleotide", "value": "significant decrease"}
    ]},
    {"molecule": "O=S(=O)(NCCNC/C=C/c1ccc(Br)cc1)c1cccc2cnccc12", "note": "[H-89]", "values": [
      {"measurement": "Nociceptive threshold to mechanical stimulation", "setting": "Sprague-Dawley rats [2]; H-89 380 nmol local spinal delivery, vs vehicle", "value": "increase"},
      {"measurement": "Change of Eanion", "setting": "lamina I neurons; lamina I neurons from PNI rats, H-89 15 in bath", "value": "significant hyperpolarization"}
    ]},
    {"molecule": "NGF: nerve growth factor, activator of TrkA, bath applied", "values": [
      {"measurement": "Change of Eanion", "setting": "lamina I neurons; [5]", "value": "significantly depolarized; also recorded: significant depolarization"}
    ]},
    {"molecule": "B1", "values": [
      {"measurement": "Change of Eanion", "setting": "lamina I neurons; [5]", "value": "significantly depolarized; also recorded: significant depolarization"}
    ]},
    {"molecule": "B2", "values": [
      {"measurement": "Nociceptive threshold for mechanical stimulation", "setting": "Sprague-Dawley rats [2]; naïve rats", "value": "significant decrease"}
    ]}
  ]
}
